Assay results reported in ChEMBL document CHEMBL1153195 (Bioorg Med Chem Lett, 2010).

What was measured:
[1] = target: Substance-P receptor (Homo sapiens, UniProt P25103); test: Displacement of [3H]substance P from human NK1 receptor expressed in CHO cells; format: cell-based
[2] = AUC (0 to 8 hrs) in rat at 1 mg/kg, po; format: ADME, organism-based; set-up: time < 8 hr, dose 1 mg/kg, route oral; details: plasma
[3] = test system: Gerbillinae; test: Anxiolytic-like activity in po or sc dosed gerbils assessed as inhibition of GR-73632-induced foot tapping administered 1 hr before GR-73632 challenge measured; format: functional; details: for ED50: read-out: ID50 (the source's name)
[4] = Cmax in rat at 1 mg/kg, po; format: ADME, organism-based; set-up: dose 1 mg/kg, route oral; details: in vivo
[5] = Ratio of drug level in brain to plasma in rat at 1 mg/kg, po after 5 mins; format: ADME, organism-based; set-up: dose 1 mg/kg, route oral

Substance-P receptor, sequence (P25103 whole entry): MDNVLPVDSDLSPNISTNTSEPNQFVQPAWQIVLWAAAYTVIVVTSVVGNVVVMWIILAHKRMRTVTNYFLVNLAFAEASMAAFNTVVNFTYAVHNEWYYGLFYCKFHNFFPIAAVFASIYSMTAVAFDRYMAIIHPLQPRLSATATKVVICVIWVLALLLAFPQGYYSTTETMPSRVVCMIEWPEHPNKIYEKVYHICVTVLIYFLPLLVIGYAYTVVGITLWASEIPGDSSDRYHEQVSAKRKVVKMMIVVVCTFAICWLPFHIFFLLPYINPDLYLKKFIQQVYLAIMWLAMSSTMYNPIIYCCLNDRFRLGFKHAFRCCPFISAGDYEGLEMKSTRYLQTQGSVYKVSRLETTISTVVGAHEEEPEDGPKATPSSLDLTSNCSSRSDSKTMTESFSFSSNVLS

Row | Structure (SMILES) | Ki [1] [nM] | further results
1 | Cc1cc(F)ccc1C1CNCC2CN(Cc3cc(C(F)(F)F)cc(C(F)(F)F)c3)C(=O)N21 (stereo not given) | 50.1 | –
2 | Cc1cc(F)ccc1[C@H]1CNCCN1C(=O)N(C)C1(c2cc(C(F)(F)F)cc(C(F)(F)F)c2)CC1 | 0.501 | AUC(0-t) at 8 h [2]: 108 ng·h/mL; Activity [3]: Dose-dependent effect; ED50 [3]: 0.2 mg/kg; Cmax [4]: 29 ng/mL
3 | Cc1cc(F)ccc1[C@H]1CNCCN1C(=O)N1CCC=CC1c1cc(C(F)(F)F)cc(C(F)(F)F)c1 (stereo in doubt; 3a) | 20 | –
4 | Cc1cc(F)ccc1[C@H]1CNCCN1C(=O)N1CCC=CC1c1cc(C(F)(F)F)cc(C(F)(F)F)c1 (stereo in doubt; 3b) | 0.501 | –
5 | Cc1cc(F)ccc1[C@H]1CNCCN1C(=O)N1CCNCC1c1cc(C(F)(F)F)cc(C(F)(F)F)c1 (stereo in doubt; 5b) [listing 2 of 2 here] | – | Activity [3]: Dose-dependent effect
6 | Cc1cc(F)ccc1[C@H]1CNCCN1C(=O)N(C)[C@H](C)c1cc(C(F)(F)F)cc(C(F)(F)F)c1 [VESTIPITANT] | – | ED50 [3]: 0.014 mg/kg

Continued, in another order:

Row | Ki [1] [nM] | Structure (SMILES) | further results
7 | 63.1 | Cc1cc(F)ccc1[C@H]1CNCCN1C(=O)N1CCCC1c1cc(C(F)(F)F)cc(C(F)(F)F)c1 (stereo in doubt; 2a) | –
8 | 6.31 | Cc1cc(F)ccc1[C@H]1CNCCN1C(=O)N1CCCC1c1cc(C(F)(F)F)cc(C(F)(F)F)c1 (stereo in doubt; 2b) | –
9 | 31.6 | Cc1cc(F)ccc1[C@H]1CNCCN1C(=O)N1CCCCC1c1cc(C(F)(F)F)cc(C(F)(F)F)c1 (stereo in doubt; 4a) | –
10 | 1.26 | Cc1cc(F)ccc1[C@H]1CNCCN1C(=O)N1CCCCC1c1cc(C(F)(F)F)cc(C(F)(F)F)c1 (stereo in doubt; 4b) | –
11 | 100 | Cc1cc(F)ccc1[C@H]1CNCCN1C(=O)N1CCNCC1c1cc(C(F)(F)F)cc(C(F)(F)F)c1 (stereo in doubt; 5a) | –
12 | 0.794 | Cc1cc(F)ccc1[C@H]1CNCCN1C(=O)N1CCNCC1c1cc(C(F)(F)F)cc(C(F)(F)F)c1 (stereo in doubt; 5b) [listing 1 of 2 here] | AUC(0-t) at 8 h [2]: 145 ng·h/mL; ED50 [3]: 0.4 mg/kg; Kp at 5 min [5]: 0.9; Cmax [4]: 32 ng/mL
